{"source": "patent US9164053B2", "about": "“Electronic device for monitoring single molecule dynamics” (THE REGENTS OF THE UNIVERSITY OF CALIFORNIA, priority 2011, dated 2015)", "key": {"[1]": {"test": "single molecule sensing device, lysozyme processing peptidoglycan (current fluctuations)", "assay_type": "biochemical", "procedure": "The linker molecule is pyrene maleimide, with the pyrene functional group non-covalently attached to the SWNT sidewall. The single sensitizing molecule is a cysteine variant of T4 lysozyme which contains a single substituted cysteine as the mutation S90C to provide a reactive thiol for bio-conjugation. The cysteine variant of T4 lysozyme was synthesized by methods known in the art. A 54 μM solution of the cysteine variant of T4 lysozyme in phosphate buffer (20 mM Na2HPO4, pH 7) is prepared. Devices dilutely coated with the linker molecule pyrene maleimide non-covalently attached to the SWNT were soaked in the lysozyme solution at room temperature for 60 minutes without agitation. Devices were then soaked in wash buffer (5 mM KCl, 10 mM Na2HPO4, 0.05% polysorbate 20, pH 7) for 30 minutes with shaking to remove unattached lysozyme. Devices were finally rinsed under flowing de-ionized water for 5 minutes. These conditions lead to a density of approximately one T4 lysozyme molecule per micrometer of exposed SWNT.\nThe fully fabricated device is used by submerging the device in a gaseous or liquid environment. Temperature of the environment should be controlled and held constant and, in the case of liquids, so should the pH and electrochemical potential. An electrical bias is created and held constant between the source and the drain electrode. The current between the source, and the drain is measured over time and collected as control data points. The device is then exposed to a different chemical environment, and the levels of the current between the source and the drain is measured over time collected as experimental data points.\nIn the embodiment of Example 2, the sensitizing molecule was lysozyme, and the chemical environment is 25 μg/ml peptidoglycan substrate in PBS buffer. The high (Ihi) and the low current values (Ilo) after the device is exposed to the peptidoglycan are measured over time. The parameters of the relative difference ΔI=(Ihi−Ilo)/Ilo are statistically analyzed, and have been determined to be the most reliable way to analyze the conformational changes in the sensitizing molecule. […] Ihi, on the other hand, is substantially larger and is assigned to the mechanically-closed conformation of lysozyme around a bound peptidoglycan molecule. Electrical transitions from Ilo to Ihi indicate the hinge-like closure of lysozyme as it attempts to catalytically cleave a glycosidic bond of the peptidoglycan.\nIn the more preferred embodiment, oscillations in the electrical current between Ilo and Ihi occur with a broad distribution of stochastic durations that mirror the enzyme's activity. Sequences of ten or more oscillations can be categorized into one of two activity types, one slow and one fast. The slow oscillation corresponds to productive enzyme activity where the enzyme is successfully cleaving bonds of the peptidoglycan. […] The amplitude of the signal ΔI is nearly the same in both slow and fast oscillations and is measured to be nearly constant, which supports a conclusion that the same range of molecular motion is being measured for both types of activity. This concurs with data from FRET which has previously proven that the range of mechanical motion in lysozyme is the same for both types of activity.\nFIG. 2A illustrates an extended sequence of current fluctuation over 30 seconds, with the mean value highlighted using the setup of Example 2. […] The fast oscillations occur on average 300 times per second. The slow oscillations occur on average 15 times per second. The exact rate of either oscillation varies from one conformation to another, so that long-duration measurements observe the conversion of the enzyme to different possible rates. In different minutes of measurement, the same protein can undergo slow oscillations varying from 10 to 80 times per second.\nFIG. 4 summarizes the data with mean values of τlo and τhi. Another figure of merit for each parameter is the statistical variance. […]"}, "[2]": {"biological_target": "T1, DNA polymerase 1 (Klenow Fragment, KF) (Escherichia coli, UniProt P00582, L790C)", "T1 construct": "a cysteine variant of the Klenow fragment of DNA polymerase 1 (KF); made in house", "T1 sequence (P00582 324-928 L790C)": "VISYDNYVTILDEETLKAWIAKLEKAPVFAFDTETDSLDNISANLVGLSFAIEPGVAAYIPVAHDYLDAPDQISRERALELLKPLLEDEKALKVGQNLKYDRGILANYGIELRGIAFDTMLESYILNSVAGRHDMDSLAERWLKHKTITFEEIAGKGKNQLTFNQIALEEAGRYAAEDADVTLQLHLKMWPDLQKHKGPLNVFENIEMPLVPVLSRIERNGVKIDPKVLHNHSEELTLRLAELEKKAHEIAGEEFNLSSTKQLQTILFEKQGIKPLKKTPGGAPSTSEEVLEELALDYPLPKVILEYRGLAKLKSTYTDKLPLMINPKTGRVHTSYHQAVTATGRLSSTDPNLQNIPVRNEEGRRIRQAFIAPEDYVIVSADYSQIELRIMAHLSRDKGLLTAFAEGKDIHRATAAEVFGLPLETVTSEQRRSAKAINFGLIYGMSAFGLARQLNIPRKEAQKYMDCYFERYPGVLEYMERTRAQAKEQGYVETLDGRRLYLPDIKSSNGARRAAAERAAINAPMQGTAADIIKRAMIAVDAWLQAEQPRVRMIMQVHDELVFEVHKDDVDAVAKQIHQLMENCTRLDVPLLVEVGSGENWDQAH", "test": "DNA polymerase I (Klenow fragment) single molecule device, nucleotide incorporation", "assay_type": "biochemical, E. Coli", "settings": "for turnover rate / τ hi / τ lo: homopolymer DNA substrate with complementary nucleotide; for average ΔI signal amplitude of incorporation, rank among four bases: FIG. 16C", "procedure": "The linker molecule is pyrene maleimide, with the pyrene functional group non-covalently attached to the SWNT sidewall. The single sensitizing molecule is a cysteine variant of the Klenow fragment of DNA polymerase 1 (KF) derived from E. Coli, which contains a single inserted cysteine at site 790 to provide a reactive thiol for bio-conjugation. The cysteine variant of KF was synthesized by methods known in the art. A 0.2 mg/mL solution of the cysteine variant of KF in activation buffer (10 mM Tris-HCl, 10 mM MgCl2, 50 mM NaCl, 1 mM DTT, pH 7.9) is prepared. Devices dilutely coated with the linker molecule pyrene maleimide non-covalently attached to the SWNT were soaked in the KF solution at room temperature for 60 minutes without agitation. Devices were then soaked in wash buffer (10 mM Tris-HCl, 10 mM MgCl2, 50 mM NaCl, 0.1 mM TCEP, 0.1% polysorbate 20, pH 7.9) for 30 minutes with shaking to remove unattached KF. Devices were finally rinsed under flowing activation buffer for 5 minutes and stored in this solution until used. These conditions lead to a density of approximately one KF molecule per micrometer of exposed SWNT.\nIn the preferred embodiment of Example 3, the sensitizing molecule is DNA polymerase 1 (Klenow Fragment, KF), and the chemical environment is a 100 nM solution of deoxyribonucleic acid (DNA) template and 100 μM deoxyribonucleotide triphosphate (dNTP) in buffer (50 mM NaCl, 10 mM MgCl2, 20 mM Tris, 10 mM dithiothreitol, pH 7.8). As before, high (Ihi) and low (Ilo) current values are observed during chemical activity and monitored in time. […] Transient pulses to a smaller current Ilo occur in the presence of chemical activity, which in this system requires the simultaneous presence of DNA template, dNTP to be incorporated, and Mg^2+ ions. Electrical transitions from Ihi to Ilo indicate the incorporation of one nucleotide into the template and can be statistically analyzed in the same ways as described for lysozyme.\nFIGS. 15A-15D illustrate the signals produced by this embodiment when measured in buffer with different combinations of substrate and nucleotides. FIGS. 15A and 15B show the response of a KF sensitizing molecule measured with at least 10 nM polyC substrate and an excess of dGTP on 1 second and 0.1 second time scales, respectively. In the latter graph, the timing and amplitude of individual events are clearly resolved. Each event represents the addition of the nucleotide dGTP to the polyC substrate. FIGS. 15C and 15D show the same device measured with at least 10 nM polyA substrate and an excess of dTTP on identical time scales. On average, the individual events in FIG. 15D have shorter durations and higher amplitudes than the events in FIG. 15B. When either substrate or nucleotides are absent in these measurements, no transitions to Ilo are observed. Again, with reference to FIG. 15D, each event (dip in measured current) represents the addition of the nucleotide dTTP to the poly A substrate.\nThe device is capable of distinguishing all four types of base incorporation, and allows large numbers of individual events to be analyzed statistically. FIGS. 16A-16C illustrates typical types of analysis performed on data generated by a single KF protein in the presence of different combinations of DNA substrates and nucleotides. FIG. 16A plots the single-molecule probability distributions for the Ihi states of all four bases A, C, G, and T. Fits to each distribution are shown as solid lines and determine the mean value of τhi for each base pair. FIG. 16B plots the distributions for the four Ilo states and gives the values of τlo. The values of τhi are much longer than τlo and therefore they determine the overall turnover rate of the KF protein for a particular type of base. The data distinguish dGTP and dCTP as having shorter incorporation times and faster turnover rates than either dTTP or dATP. […]"}, "lysozyme": {"biological_target": "T2, lysozyme (Enterobacteria phage T4, UniProt P00720, C54T/C97A/S90C)", "T2 construct": "made in house", "assay_type": "biochemical", "quoted_text": "The single sensitizing molecule is a cysteine variant of T4 lysozyme which contains a single substituted cysteine as the mutation S90C to provide a reactive thiol for bio-conjugation. […] A 54 μM solution of the cysteine variant of T4 lysozyme in phosphate buffer (20 mM Na2HPO4, pH 7) is prepared. Devices dilutely coated with the linker molecule pyrene maleimide non-covalently attached to the SWNT were soaked in the lysozyme solution at room temperature for 60 minutes without agitation. Devices were then soaked in wash buffer (5 mM KCl, 10 mM Na2HPO4, 0.05% polysorbate 20, pH 7) for 30 minutes with shaking to remove unattached lysozyme. Devices were finally rinsed under flowing de-ionized water for 5 minutes."}}}
{"compound": "lysozyme", "values": [{"measurement": "normalized variance rhi", "setting": "[1]; Nonproductive (fast), pH 5", "value": "0.48 ± 0.10"}, {"measurement": "normalized variance rlo", "setting": "[1]; Nonproductive (fast), pH 5", "value": "0.97 ± 0.13"}, {"measurement": "normalized variance rhi", "setting": "[1]; Nonproductive (fast), pH 7", "value": "0.43 ± 0.06"}, {"measurement": "normalized variance rlo", "setting": "[1]; Nonproductive (fast), pH 7", "value": "0.99 ± 0.09"}, {"measurement": "normalized variance rhi", "setting": "[1]; Nonproductive (fast), pH 11", "value": "0.61 ± 0.08"}, {"measurement": "normalized variance rlo", "setting": "[1]; Nonproductive (fast), pH 11", "value": "1.00 ± 0.10"}, {"measurement": "normalized variance rhi", "setting": "[1]; Processing (slow), pH 5", "value": "0.68 ± 0.15"}, {"measurement": "normalized variance rlo", "setting": "[1]; Processing (slow), pH 5", "value": "1.00 ± 0.18"}, {"measurement": "normalized variance rhi", "setting": "[1]; Processing (slow), pH 7", "value": "0.74 ± 0.12"}, {"measurement": "normalized variance rlo", "setting": "[1]; Processing (slow), pH 7", "value": "1.06 ± 0.15"}, {"measurement": "normalized variance rhi", "setting": "[1]; Processing (slow), pH 11", "value": "0.60 ± 0.15"}, {"measurement": "normalized variance rlo", "setting": "[1]; Processing (slow), pH 11", "value": "1.11 ± 0.23"}, {"measurement": "slow oscillations, average rate", "setting": "[1]; catalytic processing, 25 μg/ml peptidoglycan in PBS", "value": 15, "unit": "times per second"}, {"measurement": "time spent processing", "setting": "[1]; linear peptidoglycan substrate without crosslinks", "value": 88, "unit": "%"}, {"measurement": "fast oscillations, average rate", "setting": "[1]; nonproductive binding, 25 μg/ml peptidoglycan in PBS", "value": 300, "unit": "times per second"}, {"measurement": "time spent processing", "setting": "[1]; peptidoglycan substrate containing crosslinks", "value": 51, "unit": "%"}]}
{"compound": "Nc1ccn([C@H]2C[C@H](O)[C@@H](COP(=O)(O)OP(=O)(O)OP(=O)(O)O)O2)c(=O)n1", "note": "[dCTP]", "values": [{"measurement": "turnover rate", "setting": "[2]", "value": "26.2 ± 4.4", "unit": "s⁻¹"}, {"measurement": "τ hi", "setting": "[2]", "value": "39.0 ± 5.6", "unit": "ms"}, {"measurement": "τ lo", "setting": "[2]", "value": "0.32 ± 0.07", "unit": "ms"}]}
{"compound": "O=C(O)CCc1c[nH]c2ccccc12", "note": "[I3P, indole-3-propionic acid]", "values": [{"measurement": "pulse amplitude ΔI", "setting": "lysozyme; 10 mM I3P", "value": "+20%"}, {"measurement": "pulse duration τhi", "setting": "lysozyme; 10 mM I3P", "value": "< 1", "unit": "ms"}, {"measurement": "interactions with inhibitor in electronic I(t) signals", "setting": "lysozyme; weakly-interacting, non-covalent inhibitors", "value": "clearly observed"}]}
{"compound": "Nc1ncnc2c1ncn2[C@H]1C[C@H](O)[C@@H](COP(=O)(O)OP(=O)(O)OP(=O)(O)O)O1", "note": "[dATP]", "values": [{"measurement": "average ΔI signal amplitude of incorporation, rank among four bases", "setting": "[2]", "value": "largest"}, {"measurement": "turnover rate", "setting": "[2]", "value": "14.4 ± 2.9", "unit": "s⁻¹"}, {"measurement": "τ hi", "setting": "[2]", "value": "71.4 ± 14.3", "unit": "ms"}, {"measurement": "τ lo", "setting": "[2]", "value": "0.33 ± 0.08", "unit": "ms"}]}
{"compound": "Nc1nc2c(ncn2[C@H]2C[C@H](O)[C@@H](COP(=O)(O)OP(=O)(O)OP(=O)(O)O)O2)c(=O)[nH]1", "note": "[dGTP]", "values": [{"measurement": "average ΔI signal amplitude of incorporation, rank among four bases", "setting": "[2]", "value": "smallest"}, {"measurement": "turnover rate", "setting": "[2]", "value": "28.5 ± 3.5", "unit": "s⁻¹"}, {"measurement": "τ hi", "setting": "[2]", "value": "38.0 ± 5.8", "unit": "ms"}, {"measurement": "τ lo", "setting": "[2]", "value": "0.33 ± 0.06", "unit": "ms"}]}
{"compound": "Cc1cn([C@H]2C[C@H](O)[C@@H](COP(=O)(O)OP(=O)(O)OP(=O)(O)O)O2)c(=O)[nH]c1=O", "note": "[dTTP]", "values": [{"measurement": "turnover rate", "setting": "[2]", "value": "16.0 ± 2.9", "unit": "s⁻¹"}, {"measurement": "τ hi", "setting": "[2]", "value": "63.7 ± 11.4", "unit": "ms"}, {"measurement": "τ lo", "setting": "[2]", "value": "0.42 ± 0.09", "unit": "ms"}]}
